Reference: patent publication US20200216463A1, “THAILANSTATIN ANALOGS” (priority 2017, published 2020)

What was measured:
HCT 116 cells = assay: In vitro cytotoxicity, CellTiter-Glo, 72 h (Example 11); type: cell-based; conditions: Homo sapiens, HCT-116, 72 h
Method: Alternatively, the in vitro cytotoxicity of the compounds of the invention may be measured as described in this example. 180 μl of HCT 116 cells (ATCC, Cat # CCL-247) in McCoy's 5a Medium Modified (Sigma-Aldrich), St. Louis, Mo.)+10% fetal bovine serum were seeded at a density of 5,000 cells/well in a white opaque 96-well plate and incubated for 24 hours at […] in a 5% CO2 incubator. Twenty-four hours post cell seeding, 20 μl of 10× test compounds were diluted such that the final concentrations of the test compounds were in μM concentration. Half log dilutions were used, starting from 10 μM through 0.0001 μM. Puromycin and untreated cells were used as […]. The cells were incubated with the compounds for 72 hours at […] in a 5% CO2 incubator. After 72 hrs, 100 μl/well of CellTiter-Glo® Luminescent Cell Viability Assay reagent (Promega, Inc., Madison, Wis.; Cat # G7573) was added to the plates and incubated at room temperature for 30 minutes. The luminescence signals were captured using EnVision 2105 Multimode Plate Reader (PerkinElmer, Waltham, Mass.). The data were analyzed using non-linear regression curve fit (sigmoidal dose response) in GraphPad Prism software (GraphPad Software, La Jolla, Calif.) by plotting the concentration of drug on the X-axis and the mean % inhibition values on the Y-axis.

PANC 05.04 = assay: In vitro cytotoxicity on pancreatic cancer cell line (Example 12); type: cell-based, human
Method: (§1) Various cancer cell lines were obtained from the American Type Culture Collection (ATCC)). The cells were cultured in a humidified 5% CO2 incubator in a media consisting of RPMI 1640, L-glutamine, and 10% FBS. The cells were passaged as needed using standard tissue culture techniques. The cells were harvested and plated out into 96-well tissue culture treated plates at a density of 5000 cells per well. After allowing the cells to equilibrate for ˜24 hr in a humidified 5% CO2 incubator, the cells were treated with the test compounds at the indicated concentrations. The cells were exposed to the test compounds for three days with no media change. After the treatment period, CellTiter-Glo) Luminescent Cell Viability Assay reagent solution (Promega, Inc., Madison, Wis.; Cat. # G7573) was introduced to each well. The Cell TiterGlo-containing plates were then read on a SpectroMax® iD3 Multi-Mode Microplate reader (Molecular Devices, LLC, San Jose, Calif.). The degree of luminescence was dictated by the abundance of live cells.

PANC 10.05 = assay: as above; type: cell-based, human
Method: as §1

Compound	IC50 (HCT 116 cells) [nM]	IC50 (PANC 05.04) [nM]	IC50 (PANC 10.05) [nM]
COC(=O)C[C@@H]1C[C@@]2(CO2)[C@H](O)[C@@H](/C=C/C(C)=C/C[C@@H]2O[C@H](C)[C@H](NC(=O)/C=C\C(C)c3cc(OC)no3)C[C@@H]2C)O1 (stereo partly drawn) [Compound 5, Methyl 2-((3R, 5S, 7R, 8R)-8-hydroxy-7-((1E, 3E)-5-((2S, 3S, 5R, 6R)-5-((Z)-4-(3-methoxyisoxazol-5-yl)pent-2-enamido)-3,6-dimethyltetrahydro-2H-pyran-2-yl)-3-methylpenta-1,3-dienyl)-1,6-dioxaspiro[2.5]octan-5-yl)acetate]	310	–	–
CC(=O)O[C@@H](C)/C=C\C(=O)N[C@@H]1C[C@H](C)[C@H](C/C=C(C)/C=C/[C@H]2O[C@H](CC(=O)O)C[C@@]3(CO3)[C@@H]2O)O[C@@H]1C [Thailanstatin A]	–	3	4
